Columns and labels:
[1] = Dye duration (lifetime before bleaching); assay type: physicochemical
Description: and wherein the colour indicator comprises a first non-mordant dye having a first colour and being bleachable after a first dye lifetime of 0.5 to 10 minutes in a test solution at 20° C. to 40° C. and pH8.0 to 8.5 containing 0.05 wt % to 0.15 wt % of the dye and 45 wt % to 55 wt % of sodium percarbonate;
a second non-mordant dye having a second colour different from the first colour and bleachable after a second dye lifetime of not less than 24 hours in the test solution; and
an optional third non-mordant dye having a third colour different from the first and second colours and bleachable after a third dye lifetime of not less than 36 hours in the test solution.

[2] = system: spores; assay: Sporocidal action of peracetic acid (general statements); assay type: cell-based
[3] = system: spores; conditions: background statement; cited from earlier work

SMILES | DURATION [1] | Concentration sufficient to provide sporicidal action [2] | Concentration at which sporocidal [3]
O=S(=O)(O)c1cc(S(=O)(=O)O)c2c(/N=N\c3ccc(S(=O)(=O)O)c4ccccc34)c(O)ccc2c1 [Acid Red 18] | 30 min |  | 
Cc1ccc(Nc2ccc(O)c3c2C(=O)c2ccccc2C3=O)c(S(=O)(=O)[O-])c1.[Na+] [Acid Violet 43] | 5 min |  | 
CC(=O)OO [Peracetic acid] |  | approximately 1000 ppm | 4000 ppm

Source: US10660338B2, “Sporocidal disinfectant or sanitising composition” (priority 2014, dated 2020)
